Usually IC50 stands for the midpoint of a concentration-inhibition curve.

The structures appear in SMILES notation.

The target in this experiment is T1, mTOR (Homo sapiens, UniProt P42345).
T1 construct: FLAG; made in house
T1 sequence (P42345 1362-2549): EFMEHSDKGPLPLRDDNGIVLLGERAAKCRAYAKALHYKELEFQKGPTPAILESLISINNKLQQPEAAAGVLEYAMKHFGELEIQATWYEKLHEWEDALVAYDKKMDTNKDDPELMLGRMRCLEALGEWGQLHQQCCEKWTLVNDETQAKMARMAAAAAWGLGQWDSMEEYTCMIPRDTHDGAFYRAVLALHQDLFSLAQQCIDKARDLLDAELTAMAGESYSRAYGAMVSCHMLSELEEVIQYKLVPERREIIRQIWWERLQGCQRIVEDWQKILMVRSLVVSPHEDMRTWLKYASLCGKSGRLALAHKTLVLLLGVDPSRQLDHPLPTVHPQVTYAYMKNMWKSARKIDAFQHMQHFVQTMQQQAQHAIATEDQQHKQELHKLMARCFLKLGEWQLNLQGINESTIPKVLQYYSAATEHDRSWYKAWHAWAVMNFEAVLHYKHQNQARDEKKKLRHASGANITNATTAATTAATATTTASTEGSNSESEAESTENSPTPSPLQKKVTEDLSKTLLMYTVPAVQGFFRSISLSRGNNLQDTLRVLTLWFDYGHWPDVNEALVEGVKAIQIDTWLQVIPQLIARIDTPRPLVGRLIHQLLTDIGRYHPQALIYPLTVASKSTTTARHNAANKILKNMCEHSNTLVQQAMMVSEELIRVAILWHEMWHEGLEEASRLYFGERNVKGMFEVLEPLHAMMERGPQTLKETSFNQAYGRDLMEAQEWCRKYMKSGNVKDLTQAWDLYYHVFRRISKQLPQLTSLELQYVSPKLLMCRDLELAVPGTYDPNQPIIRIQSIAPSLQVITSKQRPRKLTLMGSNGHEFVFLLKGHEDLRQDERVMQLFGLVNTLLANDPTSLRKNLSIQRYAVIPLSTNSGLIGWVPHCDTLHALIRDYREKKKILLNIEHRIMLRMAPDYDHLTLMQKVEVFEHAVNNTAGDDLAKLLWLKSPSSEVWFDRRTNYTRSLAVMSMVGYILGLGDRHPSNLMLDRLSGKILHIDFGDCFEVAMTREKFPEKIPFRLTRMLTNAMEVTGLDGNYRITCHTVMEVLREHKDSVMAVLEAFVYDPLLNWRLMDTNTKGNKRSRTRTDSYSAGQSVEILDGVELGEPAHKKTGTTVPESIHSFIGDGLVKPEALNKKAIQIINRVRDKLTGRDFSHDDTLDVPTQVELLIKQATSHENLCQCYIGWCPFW
Nature of the experiment: In Vitro mTOR Kinase Assay (Echo), Test (a)(ii). It counts as biochemical. As to conditions: table of enzyme assay Test (a)(ii); read-out: Test (a)(ii) IC50. Put shortly: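 Compounds were acoustically dispensed, then incubated with FLAG-tagged mTOR (1362-2549) for 2 hours at room temperature. Reactions were quenched with EDTA plus detection antibody and AlphaScreen beads and left overnight in the dark before reading. Loss of phospho-T389 signal gave IC50 values.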
As for `CN(C)CCNC(=O)Nc1ccc(-c2nc(N3CCOCC3)cc(C3(S(=O)(=O)C4CC4)CCCC3)n2)cc1` [Example 13n, 1-[4-[4-(1-cyclopropylsulfonylcyclopentyl)-6-morpholin-4-ylpyrimidin-2-yl]phenyl]-3-(2-dimethylaminoethyl)urea], the IC50 was 997 nM. The same measure for `O=C(NCCCO)Nc1ccc(-c2nc(N3CCOCC3)cc(C3(S(=O)(=O)C4CC4)CCCC3)n2)cc1` [Example 13o, 1-[4-[4-(1-cyclopropylsulfonylcyclopentyl)-6-morpholin-4-ylpyrimidin-2-yl]phenyl]-3-(3-hydroxypropyl)urea]: 28.7 nM.

Regarding `O=C(Nc1ccc(-c2nc(N3CCOCC3)cc(C3(S(=O)(=O)C4CC4)CCC3)n2)cc1)NC1CC1` [Example 13p, 3-cyclopropyl-1-[4-[4-(1-cyclopropylsulfonylcyclobutyl)-6-morpholin-4-ylpyrimidin-2-yl]phenyl]urea], the IC50 is 2.02 nM.

With `CNC(=O)Nc1ccc(-c2nc(N3CCOCC3)cc(C3(S(=O)(=O)C4CC4)CCC3)n2)cc1` [Example 13q, 1-[4-[4-(1-cyclopropylsulfonylcyclobutyl)-6-morpholin-4-ylpyrimidin-2-yl]phenyl]-3-methylurea], the IC50 amounted to 1.92 nM. Next, `O=C(NCCO)Nc1ccc(-c2nc(N3CCOCC3)cc(C3(S(=O)(=O)C4CC4)CCC3)n2)cc1` [Example 13r, 1-[4-[4-(1-cyclopropylsulfonylcyclobutyl)-6-morpholin-4-ylpyrimidin-2-yl]phenyl]-3-(2-hydroxyethyl)urea]: 1.98 nM; `CC(C)(CO)NC(=O)Nc1ccc(-c2nc(N3CCOCC3)cc(C3(S(=O)(=O)C4CC4)CCC3)n2)cc1` [Example 13s, 1-[4-[4-(1-cyclopropylsulfonylcyclobutyl)-6-morpholin-4-ylpyrimidin-2-yl]phenyl]-3-(1-hydroxy-2-methylpropan-2-yl)urea]: 8.46 nM; `CN(C)CCNC(=O)Nc1ccc(-c2nc(N3CCOCC3)cc(C3(S(=O)(=O)C4CC4)CCC3)n2)cc1` [Example 13t, 1-[4-[4-(1-cyclopropylsulfonylcyclobutyl)-6-morpholin-4-ylpyrimidin-2-yl]phenyl]-3-(2-dimethylaminoethyl)urea]: 172 nM. On to `O=C(NCCCO)Nc1ccc(-c2nc(N3CCOCC3)cc(C3(S(=O)(=O)C4CC4)CCC3)n2)cc1` [Example 13u, 1-[4-[4-(1-cyclopropylsulfonylcyclobutyl)-6-morpholin-4-ylpyrimidin-2-yl]phenyl]-3-(3-hydroxypropyl)urea], for which the half-maximal inhibitory concentration (IC50) amounted to 4.77 nM.

On to `C[C@H]1COCCN1c1cc(C2(S(=O)(=O)C3CC3)CC2)nc(-c2ccc(NC(=O)NC3CC3)nc2)n1` [Example 14, 3-Cyclopropyl-1-[5-[4-(1-cyclopropylsulfonylcyclopropyl)-6-[(3S)-3-methylmorpholin-4-yl]pyrimidin-2-yl]pyridin-2-yl]urea], for which the IC50 worked out at 46.5 nM. Turning to `CNC(=O)Nc1ccc(-c2nc(N3CCOC[C@@H]3C)cc(C3(S(=O)(=O)C4CC4)CC3)n2)cn1` [Example 14a, 1-[5-[4-(1-cyclopropylsulfonylcyclopropyl)-6-[(3S)-3-methylmorpholin-4-yl]pyrimidin-2-yl]pyridin-2-yl]-3-methylurea], the IC50 is 13.6 nM. The same measure for `C[C@H]1COCCN1c1cc(C2(S(=O)(=O)c3ccc(NCCO)cc3)CC2)nc(-c2cnc(NC(=O)NCCO)nc2)n1` [Example 14aa, 3-(2-hydroxyethyl)-1-[5-[4-[1-[4-(2-hydroxyethylamino)phenyl]sulf-onylcyclopropyl]-6-[(3S)-3-methylmorpholin-4-yl]pyrimidin-2-yl]pyrimidin-2-yl]urea]: 18.6 nM; for `C[C@H]1COCCN1c1cc(C2(S(=O)(=O)C3CC3)CC2)nc(-c2ccc(NC(=O)NCCN(C)C)nc2)n1` [Example 14b, 1-[5-[4-(1-cyclopropylsulfonylcyclopropyl)-6-[(3S)-3-methylmorpholin-4-yl]pyrimidin-2-yl]pyridin-2-yl]-3-(2-dimethylaminoethyl)urea]: 1390 nM. Consider `C[C@H]1COCCN1c1cc(C2(S(=O)(=O)C3CC3)CC2)nc(-c2ccc(NC(=O)NCCO)nc2)n1` [Example 14c, 1-[5-[4-(1-cyclopropylsulfonylcyclopropyl)-6-[(3S)-3-methylmorpholin-4-yl]pyrimidin-2-yl]pyridin-2-yl]-3-(2-hydroxyethyl)urea], for which the IC50 came to 40.1 nM.

As for `C[C@H]1COCCN1c1cc(C2(S(=O)(=O)C3CC3)CC2)nc(-c2ccc(NC(=O)Nc3cnn(C)c3)nc2)n1` [Example 14d, 1-[5-[4-(1-cyclopropylsulfonylcyclopropyl)-6-[(3S)-3-methylmorpholin-4-yl]pyrimidin-2-yl]pyridin-2-yl]-3-(1-methylpyrazol-4-yl)urea], the IC50 stood at 14.3 nM. `C[C@H]1COCCN1c1cc(C2(S(=O)(=O)c3ccc(F)cc3)CC2)nc(-c2cnc(NC(=O)NC3CC3)nc2)n1` [Example 14e, 3-cyclopropyl-1-[5-[4-[1-(4-fluorophenyl)sulfonylcyclopro-pyl]-6-[(3S)-3-methylmorpholin-4-yl]pyrimidin-2-yl]pyrimidin-2-yl]urea]: the IC50 was determined as 110 nM.

For the molecule `CNC(=O)Nc1ncc(-c2nc(N3CCOC[C@@H]3C)cc(C3(S(=O)(=O)c4ccc(F)cc4)CC3)n2)cn1` [Example 14f, 1-[5-[4-[1-(4-fluorophenyl)sulfonylcyclopro-pyl]-6-[(3S)-3-methylmorpholin-4-yl]pyrimidin-2-yl]pyrimidin-2-yl]-3-methylurea], the IC50 was 189 nM. Consider `C[C@H]1COCCN1c1cc(C2(S(=O)(=O)c3ccc(F)cc3)CC2)nc(-c2cnc(NC(=O)NCCO)nc2)n1` [Example 14g, 1-[5-[4-[1-(4-fluorophenyl)sulfonylcyclopro-pyl]-6-[(3S)-3-methylmorpholin-4-yl]pyrimidin-2-yl]pyrimidin-2-yl]-3-(2-hydroxyethyl)urea], for which the IC50 amounted to 85.7 nM. As to `C[C@H]1COCCN1c1cc(C2(S(=O)(=O)c3ccc(F)cc3)CC2)nc(-c2cnc(NC(=O)Nc3cnn(C)c3)nc2)n1` [Example 14h, 1-[5-[4-[1-(4-fluorophenyl)sulfonylcyclopro-pyl]-6-[(3S)-3-methylmorpholin-4-yl]pyrimidin-2-yl]pyrimidin-2-yl]-3-(1-methylpyrazol-4-yl)urea], the IC50 was 140 nM.

As for `C[C@H]1COCCN1c1cc(C2(S(=O)(=O)c3ccc(F)cc3)CC2)nc(-c2ccc(NC(=O)NC3CC3)nc2)n1` [Example 14i, 3-cyclopropyl-1-[5-[4-[1-(4-fluorophenyl)sulfonylcyclopro-pyl]-6-[(3S)-3-methylmorpholin-4-yl]pyrimidin-2-yl]pyridin-2-yl]urea], the IC50 came to 33.9 nM. In the case of `CNC(=O)Nc1ccc(-c2nc(N3CCOC[C@@H]3C)cc(C3(S(=O)(=O)c4ccc(F)cc4)CC3)n2)cn1` [Example 14j, 1-[5-[4-[1-(4-fluorophenyl)sulfonylcyclopro-pyl]-6-[(3S)-3-methylmorpholin-4-yl]pyrimidin-2-yl]pyridin-2-yl]-3-methylurea], the IC50 is 12.9 nM. Take `C[C@H]1COCCN1c1cc(C2(S(=O)(=O)c3ccc(F)cc3)CC2)nc(-c2ccc(NC(=O)NCCN(C)C)nc2)n1` [Example 14k, 3-(2-dimethylaminoethyl)-1-[5-[4-[1-(4-fluorophenyl)sulfonylcyclopro-pyl]-6-[(3S)-3-methylmorpholin-4-yl]pyrimidin-2-yl]pyridin-2-yl]urea]: the IC50 worked out at 275 nM.
